Experimental data reported in patent publication US20260215418A1, “HYDROCARBON ALCOHOLS AND THEIR DERIVATIVES AS SYNERGISTS IN PESTICIDE ACTIVITY” (priority 2022, published 2026).
Read-outs that look alike come from different tables or passages of the source.

Legend:
Blatta orientalis = settings: Blatta orientalis; for synergizing effect on Azamethiphos: synergist applied with Azamethiphos; for synergizing effect on Cypermethrin: synergist applied with Cypermethrin
Protocol: Method: Contact test on non-porous tile measuring 400 cm^2 at a temperature of 28° C. Test duration: up to 72 hours after exposure of the insect to the insecticidal active substance.
(§1) Three tests were performed in parallel, A, B, and C, as follows: • A) Comparative. 1 ml of Composition 2 was applied to the tile. After waiting for the complete evaporation of the solvent, 10 cockroaches were placed on top of the treated tile, starting the test. • B) According to the invention. 1 ml of Composition 8b was distributed on the tile. After waiting for the complete evaporation of the solvent, 1 ml of Composition 2 was added to the same tile. Subsequently, after waiting for the solvent to evaporate, 10 cockroaches were placed on top of the treated tile, starting the test. • C) According to the invention. 1 ml of Composition 8b was distributed on a tile. After waiting for the complete evaporation of the solvent, 10 cockroaches were placed for 30 minutes on top of the treated tile. At the end of the 30 minutes, the cockroaches were transferred to an untreated area.
Method: Contact test on non-porous tile measuring 400 cm^2 at a temperature of 28° C. Test duration: up to 120 hours after exposure of the insect to the insecticidal active substance.
as §1, with “4a” for “2”, “8d” for “8b”, “After” for “Subsequently, after”
Six tests were performed in parallel, A, B, C, D, E and F, as follows: • A) Comparative. 1 ml of Composition 9b was distributed on the tile. After waiting for the complete evaporation of the solvent, 1 ml of Composition 4a was added to the same tile. Subsequently, after waiting for the solvent to evaporate, 10 cockroaches were placed on top of the treated tile, starting the test. • B) Comparative. 1 ml of Composition 9b was distributed on a tile. After waiting for the complete evaporation of the solvent, 10 cockroaches were placed for 30 minutes on top of the treated tile. At the end of the 30 minutes, the cockroaches were transferred to an untreated area. […] 1 ml of Composition 10b was distributed on the tile. After waiting for the complete evaporation of the solvent, 1 ml of Composition 4a was added to the same tile. Subsequently, after waiting for the solvent to evaporate, 10 cockroaches were placed on top of the treated tile, starting the test. • D) Comparative. 1 ml of Composition 10b was distributed on a tile. After waiting for the complete evaporation of the solvent, 10 cockroaches were placed for 30 minutes on top of the treated tile. At the end of the 30 minutes, the cockroaches were transferred to an untreated area. […] 1 ml of Composition 8d was distributed on the tile. After waiting for the complete evaporation of the solvent, 1 ml of Composition 4a was added to the same tile. Subsequently, after waiting for the solvent to evaporate, 10 cockroaches were placed on top of the treated tile, starting the test. • F) According to the invention. 1 ml of Composition 8d was distributed on a tile. After waiting for the complete evaporation of the solvent, 10 cockroaches were placed for 30 minutes on top of the treated tile. At the end of the 30 minutes, the cockroaches were transferred to an untreated area.

Blattella germanica = assay: Contact test on non-porous tile, Blattella germanica; assay type: in vivo; settings: Blattella germanica; synergist applied with Imidacloprid
Protocol: 1 ml of Composition 36 was distributed on the tile. […] 1 ml of Composition 37 was distributed on a tile.

Compound	synergizing effect on Azamethiphos (Blatta orientalis)	synergizing effect on Cypermethrin (Blatta orientalis)	synergizing effect on Cypermethrin (Blatta orientalis; listed as oleic alcohol 95%)	synergizing effect on Imidacloprid (Blattella germanica)
CCCCCCCC/C=C\CCCCCCCCOC(C)=O [Oleyl acetate]	fine synergizing effect	excellent-fine synergizing effect		
CCCCCCCCOC(=O)OCCCCCCCC [dioctyl carbonate]	good synergizing effect	synergizing effect		
Oleic alcohol [Oleic alcohol 95%]	fine synergizing effect	fine synergizing effect	superior to that shown with PBO	fine synergizing effect
